Laboratory results from patent US12077503B2, “Substituted cyclic amides and their use as herbicides” (FMC CORPORATION, priority 2015, dated 2024).
Read-outs that look alike come from different tables or passages of the source.

Key:
Assay type in all cases: in vivo
[1] = tested on: barnyardgrass (Echinochloa crus-galli); test: Test A preemergence; details: Echinochloa crus-galli, pre-emergence, 240 h; for pest or weed control at 125 g/ha: 125 g ai/ha; for pest or weed control at 500 g/ha: 500 g ai/ha
In short: (§1)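 In a loam soil and sand blend, planted seeds got a preemergence directed soil spray, and young plants at the one- to two-leaf stage, 2–10 cm high, got a postemergence application; ~10 d greenhouse hold; injury rated visually, 0 = none, 100 = complete control.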

[2] = tested on: giant foxtail (Setaria faberii); test: Test A preemergence; details: Setaria faberi, pre-emergence, 240 h; for pest or weed control at 125 g/ha: 125 g ai/ha; for pest or weed control at 500 g/ha: 500 g ai/ha
In short: as §1

[3] = tested on: ryegrass, Italian (Italian ryegrass, Lolium multiflorum); test: Test A preemergence; details: Lolium multiflorum, pre-emergence, 240 h; for pest or weed control at 125 g/ha: 125 g ai/ha
In short: as §1

[4] = tested on: pigweed (Amaranthus retroflexus); test: Test A preemergence; details: Amaranthus retroflexus, pre-emergence, 240 h; for pest or weed control at 125 g/ha: 125 g ai/ha; for pest or weed control at 500 g/ha: 500 g ai/ha
[5] = tested on: Kochia (Kochia scoparia); test: Test A preemergence; details: Bassia scoparia, pre-emergence, 240 h; for pest or weed control at 125 g/ha: 125 g ai/ha; for pest or weed control at 500 g/ha: 500 g ai/ha
In short: as §1

[6] = tested on: ragweed (common ragweed, Ambrosia elatior); test: Test A preemergence; details: Ambrosia artemisiifolia, pre-emergence, 240 h; for pest or weed control at 125 g/ha: 125 g ai/ha; for pest or weed control at 500 g/ha: 500 g ai/ha
In short: as §1

[7] = tested on: barnyardgrass (Echinochloa crus-galli); test: Test B flooded paddy test; details: Echinochloa crus-galli, 250 g ai/ha, Flood; 0 to 100 scale where 0 is no effect and 100 is complete control; read-out: Barnyardgrass plant response rating
In short: (§2)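 Flooding to 3 cm over soil accompanied treatment, which consisted of adding compound to the standing water around 2-leaf plants; depth was then maintained. Visual assessment versus controls followed at 13 to 15 d (scale 0–100, 0 meaning no effect).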

[8] = tested on: ducksalad (Heteranthera limosa); test: Test B flooded paddy test; details: Heteranthera limosa, 250 g ai/ha, Flood; 0 to 100 scale where 0 is no effect and 100 is complete control; read-out: Ducksalad plant response rating
In short: as §2

[9] = tested on: rice (Oryra sativa); test: Test B flooded paddy test; details: Oryza sativa, 250 g ai/ha, Flood; 0 to 100 scale where 0 is no effect and 100 is complete control; read-out: Rice plant response rating
In short: as §2

[10] = tested on: sedge, umbrella (small-flower umbrella sedge, Cyperus difformis); test: Test B flooded paddy test; details: Cyperus difformis, 250 g ai/ha, Flood
In short: as §2

[11] = tested on: corn (Zea mays); test: Test A postemergence; details: Zea mays, post-emergence, 240 h; for plant injury at 125 g/ha: 125 g ai/ha, read-out: Corn plant response rating (0 to 100 scale)
In short: as §1

[12] = tested on: pigweed (Amaranthus retroflexus); test: Test A postemergence; details: Amaranthus retroflexus, post-emergence, 240 h; for pest or weed control at 125 g/ha: 125 g ai/ha, read-out: Pigweed plant response rating (0 to 100 scale); for pest or weed control at 500 g/ha: 500 g ai/ha
In short: as §1

[13] = tested on: Kochia (Kochia scoparia); test: Test A postemergence; details: Bassia scoparia, post-emergence, 240 h; for pest or weed control at 125 g/ha: 125 g ai/ha, read-out: Kochia plant response rating (0 to 100 scale); for pest or weed control at 500 g/ha: 500 g ai/ha
In short: as §1

[14] = tested on: Galium (catchweed bedstraw, Galium aparine); test: Test A postemergence; details: Galium, post-emergence, 240 h; for pest or weed control at 125 g/ha: 125 g ai/ha, read-out: Galium plant response rating (0 to 100 scale); for pest or weed control at 500 g/ha: 500 g ai/ha
In short: as §1

[15] = preemergence, 0 to 100 scale where 0 is no effect and 100 is complete control, read-out: Barnyardgrass plant response rating
[16] = preemergence, 0 to 100 scale where 0 is no effect and 100 is complete control, read-out: Foxtail, Giant plant response rating
[17] = preemergence, 0 to 100 scale where 0 is no effect and 100 is complete control, read-out: Pigweed plant response rating
[18] = preemergence, 0 to 100 scale where 0 is no effect and 100 is complete control, read-out: Kochia plant response rating
[19] = preemergence, 0 to 100 scale where 0 is no effect and 100 is complete control, read-out: Ragweed plant response rating
[20] = postemergence, visual injury vs untreated controls after approx. 10 d, 0 = no effect, 100 = complete control
[21] = Postemergence, visual rating about 10 d after treatment

## O=C1NC[C@H](c2cccc(C(F)(F)F)c2)C1C(=O)Nc1ccccc1CO (some centres unmarked) [Compound 1244]
[1]; preemergence, visual injury rating, 0 to 100 scale where 0 is no effect and 100 is complete control, approximately 10 d, read-out: Barnyardgrass plant response rating
  pest or weed control at 125 g/ha: 80%
[1]; [15]
  pest or weed control at 500 g/ha: 90%
[2]; preemergence, visual injury rating, 0 to 100 scale where 0 is no effect and 100 is complete control, approximately 10 d, read-out: Foxtail, Giant plant response rating
  pest or weed control at 125 g/ha: 90%
[2]; [16]
  pest or weed control at 500 g/ha: 90%
[3]; preemergence, visual injury rating, 0 to 100 scale where 0 is no effect and 100 is complete control, approximately 10 d, read-out: Ryegrass, Italian plant response rating
  pest or weed control at 125 g/ha: 0%
[3]; 500 g ai/ha, preemergence, 0 to 100 scale where 0 is no effect and 100 is complete control, read-out: Ryegrass, Italian plant response rating
  pest or weed control at 500 g/ha: 50%
[4]; preemergence, visual injury rating, 0 to 100 scale where 0 is no effect and 100 is complete control, approximately 10 d, read-out: Pigweed plant response rating
  pest or weed control at 125 g/ha: 0%
[4]; [17]
  pest or weed control at 500 g/ha: 0%
[5]; preemergence, visual injury rating, 0 to 100 scale where 0 is no effect and 100 is complete control, approximately 10 d, read-out: Kochia plant response rating
  pest or weed control at 125 g/ha: 0%
[5]; [18]
  pest or weed control at 500 g/ha: 0%
[6]; preemergence, visual injury rating, 0 to 100 scale where 0 is no effect and 100 is complete control, approximately 10 d, read-out: Ragweed plant response rating
  pest or weed control at 125 g/ha: 0%
[6]; [19]
  pest or weed control at 500 g/ha: 0%
[7]
  pest or weed control at 250 g/ha: 20%
[8]
  pest or weed control at 250 g/ha: 30%
[9]
  pest or weed control at 250 g/ha: 0%
[10]; 0 to 100 scale where 0 is no effect and 100 is complete control, read-out: Sedge, Umbrella plant response rating
  pest or weed control at 250 g/ha: 0%
[11]; [20]
  plant injury at 125 g/ha: 0%
[11]; 500 g ai/ha, postemergence, 0 to 100 scale, 0 is no effect, 100 is complete control, read-out: Corn plant response rating
  plant injury at 500 g/ha: 40%
[12]; [20]
  pest or weed control at 125 g/ha: 0%
[12]; postemergence, 0 to 100 scale, 0 is no effect, 100 is complete control, read-out: Pigweed plant response rating
  pest or weed control at 500 g/ha: 0%
[13]; [20]
  pest or weed control at 125 g/ha: 0%
[13]; postemergence, 0 to 100 scale, 0 is no effect, 100 is complete control, read-out: Kochia plant response rating
  pest or weed control at 500 g/ha: 0%
[14]; [20]
  pest or weed control at 125 g/ha: 0%
[14]; postemergence, 0 to 100 scale, 0 is no effect, 100 is complete control, read-out: Galium plant response rating
  pest or weed control at 500 g/ha: 20%

## O=C1NC[C@H](c2ccc(OC(F)F)cc2)[C@H]1C(=O)Nc1ccc(F)cc1F [Compound 1325]
[1]; [15]
  pest or weed control at 500 g/ha: 90%
[1]; Preemergence, 0 to 100 scale (0 no effect, 100 complete control), read-out: Plant response rating, Barnyardgrass
  pest or weed control at 125 g/ha: 90%
[2]; [16]
  pest or weed control at 500 g/ha: 90%
[2]; Preemergence, 0 to 100 scale (0 no effect, 100 complete control), read-out: Plant response rating, Foxtail, Giant
  pest or weed control at 125 g/ha: 90%
[3]; Preemergence, 0 to 100 scale (0 no effect, 100 complete control), read-out: Plant response rating, Ryegrass, Italian
  pest or weed control at 125 g/ha: 0%
[4]; [17]
  pest or weed control at 500 g/ha: 90%
[4]; Preemergence, 0 to 100 scale (0 no effect, 100 complete control), read-out: Plant response rating, Pigweed
  pest or weed control at 125 g/ha: 60%
[5]; [18]
  pest or weed control at 500 g/ha: 90%
[5]; Preemergence, 0 to 100 scale (0 no effect, 100 complete control), read-out: Plant response rating, Kochia
  pest or weed control at 125 g/ha: 80%
[6]; [19]
  pest or weed control at 500 g/ha: 70%
[6]; Preemergence, 0 to 100 scale (0 no effect, 100 complete control), read-out: Plant response rating, Ragweed
  pest or weed control at 125 g/ha: 10%
[7]
  pest or weed control at 250 g/ha: 15%
[8]
  pest or weed control at 250 g/ha: 100%
[9]
  pest or weed control at 250 g/ha: 0%
[10]; 360 h, visually evaluated after 13 to 15 d, read-out: Plant response rating, Sedge, Umbrella (0 to 100 scale where 0 is no effect and 100 is complete control)
  pest or weed control at 250 g/ha: 0%
[11]; [21]
  plant injury at 125 g/ha: 0%
[11]; Postemergence, 500 g ai/ha, visual injury, 0 to 100 scale (0 no effect, 100 complete control), approx. 10 d
  Corn plant response rating (crop injury, 0 = no effect, 100 = complete kill) at 500 g/ha: 50%
[12]; [21]
  pest or weed control at 125 g/ha: 70%
[12]; Postemergence, visual injury, 0 to 100 scale (0 no effect, 100 complete control), approx. 10 d, read-out: Plant response rating, Pigweed
  pest or weed control at 500 g/ha: 90%
[13]; [21]
  pest or weed control at 125 g/ha: 70%
[13]; Postemergence, visual injury, 0 to 100 scale (0 no effect, 100 complete control), approx. 10 d, read-out: Plant response rating, Kochia
  pest or weed control at 500 g/ha: 80%
[14]; [21]
  pest or weed control at 125 g/ha: 80%
[14]; Postemergence, visual injury, 0 to 100 scale (0 no effect, 100 complete control), approx. 10 d, read-out: Plant response rating, Galium
  pest or weed control at 500 g/ha: 90%
